Experimental data published in patent US9938316B2, “Selective inhibitors of α2 isoform of Na,K-ATPase and use thereof for reduction of intra-ocular pressure and as cardiotonic agents” (priority 2013, dated 2018).

What was measured:
[1] = system: Na,K-ATPase isoforms (α1β1, α2β1, α3β1); details: membranes; cited from earlier work
[2] = system: purified α2β1FXYD1 complexes of Na,K-ATPase; assay: Dissociation of cardiac glycosides from the α2β1 isoform complex
Procedure: Since the principal isoform in NPE cells is α2 and dissociation from the pump is expected to affect the duration of the effects on IOP, the dissociation rates of different cardiac glycosides from the purified α2β1 isoform were compared.
Purified α2β1FXYD1 complexes (0.3-0.5 mg/ml) were incubated for 30 minutes at 37° C. in a medium containing ATP, 1 mM; NaCl 100 mM; MgCl2, 4 mM Histidine.HCl 25 mM pH 7.4 without (Control) or with 1 μM of different cardiac glycosides. The enzyme solutions were then diluted 100-fold into a medium containing 100 mM NaCl, 5 mM KCl, 1 mM EDTA (Tris), 0.005 mg/ml C12E8, 0.01 mg/ml SOPS, and 0.001 mg/ml cholesterol and incubated at 37° C. for different lengths of time. Aliquots were removed at different times and Na,K-ATPase activity was measured in triplicate over 0.5 minutes (digoxigenin) or 2 minutes (other cardiac glycosides) in the standard activity medium containing 200 μM ATP. The activity of test samples was divided by the activity of the control samples and the time-course for reversal of inhibition was analyzed by fitting the data to the function vt=v∞e^−kt+c. Normalized curves for comparison of different experiments (e.g. as in FIG. 9) were obtained by subtracting the constant value c from each value of the activity and re-fitting the ratio vt/v∞=1−e^−kt.

[3] = system: cornea of rabbits; assay: Pachymetry: corneal thickness and local toxicity after topical cardiac glycosides; assay type: in vivo, New Zealand white rabbits; details: rabbit, in vivo
Procedure: Thus, in this study, no change in corneal thickness was detected (Table 3), indicative of lack of local toxic effects. […] Similar results were obtained with CG's applied after IB-MECA.
IOP (mm Hg) of rabbits was measured using a calibrated Pneumatonometer (Model 30, Reichert technologies, FIG. 1). A local anesthetic Oxybuprocaine HCl (0.4%, 25 μl) was applied to each cornea about a minute before IOP measurements. Two baseline IOP readings were taken before topical administration of the CG (or PBS as control) and after half an hour (Zero time). […] At zero time one drop of 4AP (40 mg/ml, 30 μl) or IB-MECA (1 μM, 30 μl) was administered to both eyes of each rabbit IOP measurements were made at different times as indicated in each experiment. In the experiments for which the IOP was elevated for several hours, 4AP was added every 1.5 hours or IB-MECA every 2 hours. […] Each experiment was repeated two or three times with similar results. In all cases the figures depict the average effect on IOP (i.e for four or six eyes) compared to control ±SEM. Where error bars are not seen in the figures, the errors are smaller than the symbols used. Significance of differences from the control was calculated by the unpaired Students t-test (p values), p values <0.05 were considered significant. Corneal thickness (μm) was measured using an ultrasonic pachymeter (Sonogage pachometer, Cleveland, USA), before and during the experiment with CG and 4AP treatments. The values represent averages of three independent measurements for each eye.

[4] = system: intra-ocular pressure (IOP) of rabbits; assay: 4-aminopyridine (4AP)-induced ocular hypertension in rabbits; assay type: in vivo, New Zealand white rabbits; details: for Effect on 4AP-induced rise in IOP: 1 drop topically 30 minutes prior to 4AP
Procedure: Intra-ocular pressure in rabbits was measured using of a “Reichert Model 30™ Pneumatonometer” after anesthetizing the cornea with local anesthetic.
Since the IOP reflects a balance of the inflow and outflow of aqueous humour, reduction of the increased 4AP-induced inflow of aqueous humour by cardiac glycosides should prevent the increase in IOP. Thus, the standard experimental design to test effects of cardiac glycosides involved topical application of the compounds (1 drop in each eye) 30 minutes prior to application of 4AP and measurement of IOP every 30 minutes over five hours. […] Each experiment was done three times, but the figures depict a representative experiment using a different rabbit for each concentration of the cardiac glycoside.
DGlyN or DMe (0.1 or 1 mM) were applied one hour after the first application of 4AP, which was added every two hours.
New Zealand white rabbits (3-3.5 kg) about 1 year old, of either sex, were housed individually in separate cages in animal room conditions on a reversed, 12-hour dark/light cycle. For the experiments the animals were transferred to rabbit restrainers in a quiet and calm atmosphere (FIG. 1). […] Animal care and treatment were subject to the approval of the institutional committee for animal experiments, Weizmann Institute IACUC permission (no 04270911-2).
IOP (mm Hg) of rabbits was measured using a calibrated Pneumatonometer (Model 30, Reichert technologies, FIG. 1). A local anesthetic Oxybuprocaine HCl (0.4%, 25 μl) was applied to each cornea about a minute before IOP measurements. Two baseline IOP readings were taken before topical administration of the CG (or PBS as control) and after half an hour (Zero time). […] At zero time one drop of 4AP (40 mg/ml, 30 μl) or IB-MECA (1 μM, 30 μl) was administered to both eyes of each rabbit IOP measurements were made at different times as indicated in each experiment. In the experiments for which the IOP was elevated for several hours, 4AP was added every […] or IB-MECA every 2 hours. […] In all cases the figures depict the average effect on IOP (i.e for four or six eyes) compared to control ±SEM. […] Significance of differences from the control was calculated by the unpaired Students t-test (p values), p values <0.05 were considered significant. Corneal thickness (μm) was measured using an ultrasonic pachymeter (Sonogage pachometer, Cleveland, USA), before and during the experiment with CG and 4AP treatments. The values represent averages of three independent measurements for each eye.

SMILES | Isoform selectivity of KD (in words) [1] | t1/2 ± SEM (dissociation) [2] [min] | k ± SEM (rate of dissociation) ([2]; α2β1 isoform complex, 37° C.) | Redness or local irritation in conjunctiva or cornea [3] | Effect on 4AP-induced rise in IOP ([4]; 0.25 mM) | Effect on 4AP-induced rise in IOP ([4]; 1 mM) | Time IOP is maintained at the low level ([4]; 1 mM, single drop, 4AP every two hours) [h]
C[C@]12CC[C@H](O)C[C@H]1CC[C@@H]1[C@@H]2CC[C@]2(C)[C@@H](C3=CC(=O)OC3)CC[C@]12O [digitoxgenin] | no isoform selectivity |  |  |  |  |  | 
C[C@H]1O[C@@H](O[C@H]2[C@@H](O)C[C@H](O[C@H]3[C@@H](O)C[C@H](O[C@H]4CC[C@@]5(C)[C@H](CC[C@@H]6[C@@H]5C[C@@H](O)[C@]5(C)[C@@H](C7=CC(=O)OC7)CC[C@]65O)C4)O[C@@H]3C)O[C@@H]2C)C[C@H](O)[C@@H]1O [Digoxin, digoxin, reference compound] |  | 47.5 ± 5.05 | 0.015 ± 0.001, 4 min^−1 | neither redness nor local irritation were observed | poorly effective | able to prevent the 4AP-induced rise in IOP | 1
